Results reported in patent US11840686B2, “Modulation of prekallikrein (PKK) expression” (Ionis Pharmaceuticals, Inc., priority 2013, dated 2023).
Strand notation (5' to 3'): a small letter for the sugar, then the base; units joined by * are phosphorothioate-linked, units joined directly phosphodiester-linked; [ ] holds rarer units or linkages, { } end groups; capitals alone tell only the bases. e = 2'-O-(2-methoxyethyl) (MOE); k = constrained ethyl (cEt); [5mC] = 5-methylcytosine; d = 2'-deoxy (DNA)

How the values were obtained:
[1] = system: PKK protein; assay: PKK protein in cynomolgus monkey plasma by ELISA (Example 8); format: in vivo; conditions: 40 mg/kg sc
Method: Approximately 0.9 mL of blood was collected each time from all available animals at pre-dose, day 17, day 31, day 45, day 59, and day 73, and placed in tubes containing 3.2% sodium citrate. The tubes were centrifuged (3000 rpm for 10 min at room temperature) to obtain plasma. PKK protein levels were measured in the plasma by ELISA. The results are presented in Table 52, expressed as percentage inhibition compared to the PBS control levels.

[2] = cynomolgus monkey, in vivo, sc, 40 mg/kg
Method: (§3) Prior to the study, the monkeys were kept in quarantine for a 30-day period, during which the animals were observed daily for general health. The monkeys were 2-4 years old and weighed between 2 and 4 kg. Ten groups of four randomly assigned male cynomolgus monkeys each were injected subcutaneously with ISIS oligonucleotide or PBS. PBS solution or ISIS oligonucleotides at a dose of 40 mg/kg were administered initially with a loading regimen consisting of four doses on the first week of the study (days 1, 3, 5, and 7), followed by a maintenance regimen consisting of once weekly administration starting on Day 14 (weeks 2 to 13). Subcutaneous injections were performed in clock-wise rotations at 4 sites on the back; one site per dose. The injection sites were delineated by tattoo, while sedated using ketamine, and were separated by a minimum of 3 cm.
To evaluate any inflammatory effect of ISIS oligonucleotides in cynomolgus monkeys, the monkeys were fasted overnight. Approximately, 1.5 mL of blood samples were collected from all the study groups. Blood was collected in tubes without anticoagulant for serum separation. The tubes were kept at room temperature for a minimum of 90 min and then centrifuged at 3,000 rpm for 10 min. C-reactive protein (CRP), which is synthesized in the liver and which serves as a marker of inflammation, was measured using a Toshiba 120FR NEO chemistry analyzer (Toshiba Co., Japan). Complement C3 was also measured similarly, and the data is presented as a percentage of baseline values.

[3] = cynomolgus monkey, in vivo, sc, 40 mg/kg; remark: listed apart in the source
Method: as §3
To evaluate the effect of ISIS oligonucleotides on kidney function, the monkeys were fasted overnight. Approximately, 1.5 mL of blood samples were collected from all the study groups. Blood was collected in tubes without anticoagulant for serum separation. The tubes were kept at room temperature for a minimum of 90 min and then centrifuged at 3,000 rpm for 10 min. Levels of BUN and creatinine were measured using a Toshiba 120FR NEO chemistry analyzer (Toshiba Co., Japan).

[4] = cynomolgus monkey, in vivo, sc, 40 mg/kg; remark: listed apart in the source
Method: as §3
Kidney function was also assessed by urinalysis. Fresh urine from all animals was collected using a clean cage pan on wet ice. Food was removed overnight the day before fresh urine collection was done but water was supplied. The total protein and creatinine levels were measured using a Toshiba 120FR NEO automated chemistry analyzer (Toshiba Co., Japan) and the protein to creatinine ratio was calculated.

[5] = cynomolgus monkey, in vivo, sc, 40 mg/kg; remark: listed apart in the source
Method: as §3
To evaluate any effect of ISIS oligonucleotides in cynomolgus monkeys on hematologic parameters, blood samples of approximately 1.2 mL of blood was collected pre-dose and on day 87 or day 88 from each of the available study animals in tubes containing K2-EDTA. Samples were analyzed for red blood cell (RBC) count, white blood cells (WBC) count, platelet count, hemoglobin content and hematocrit, using an ADVIA2120i hematology analyzer (SIEMENS, USA).

[6] = cynomolgus monkey, in vivo, sc, 40 mg/kg; remark: listed apart in the source
Method: as §3
To evaluate the effect of ISIS oligonucleotides on hepatic function, the monkeys were fasted overnight. Approximately, 1.5 mL of blood samples were collected from all the study groups. Blood was collected in tubes without anticoagulant for serum separation. The tubes were kept at room temperature for a minimum of 90 min and then centrifuged at 3,000 rpm for 10 min. Levels of various liver function markers were measured using a Toshiba 120FR NEO chemistry analyzer (Toshiba Co., Japan).

[7] = system: human PKK mRNA; assay: Dose-dependent antisense inhibition of human PKK in HepaRG cells, 0.11-3.00 uM (Example 6); format: cell-based; conditions: electroporation, approx. 16 hours, relative to untreated control cells
In short: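 HepaRG cells were electroporated with antisense oligonucleotide at 0.11, 0.33, 1.00 or 3.00 μM. After about 16 h, PKK mRNA was quantified by qRT-PCR with primer probe set RTS3454 and normalized to total RNA by RIBOGREEN. IC50 was derived from the dose series.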

[8] = system: PKK mRNA; assay: PKK mRNA in cynomolgus monkey liver (Example 8); format: in vivo; conditions: 40 mg/kg s.c., loading then weekly to week 13; day 87 or 88, 48 h after final dose
Method: Cynomolgus monkeys were treated with ISIS antisense oligonucleotides selected from studies described above. Antisense oligonucleotide efficacy and tolerability were evaluated. The human antisense oligonucleotides tested are cross-reactive with the rhesus genomic sequence (GENBANK Accession No. NW_001118167.1 truncated from nucleotides 2358000 to 2391000 and designated herein as SEQ ID NO: 18).
On day 87 or 88, 48 hours after the final dose, RNA was extracted from liver tissue for real-time PCR analysis of PKK using primer probe set RTS3455 (forward sequence […], designated herein as SEQ ID NO: 23; reverse sequence […], designated herein as SEQ ID NO: 24; probe sequence […], designated herein as SEQ ID NO: 25). The results were normalized to the housekeeping gene, Cyclophilin. Results are presented as percent inhibition of PKK mRNA, relative to PBS control.

[9] = system: human PKK mRNA; assay: Antisense inhibition of human PKK mRNA in HepaRG cells, 1,000 nM, MOE/deoxy/cEt oligonucleotides (Example 3); format: cell-based; conditions: HepaRG cells, electroporation with 1,000 nM antisense oligonucleotide, approximately 24 hours, primer probe set RTS3454, relative to untreated control cells
In short: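 HepaRG cells at 20,000 per well electroporated with 1,000 nM 16-mer MOE/cEt/deoxy gapmers (phosphorothioate, 5-methylcytosine). After about 24 h, PKK mRNA measured by qRT-PCR with primer probe set RTS3454, normalized to RIBOGREEN total RNA. Reported as percent inhibition versus untreated cells.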

[10] = system: human PKK mRNA; assay: Human PKK mRNA in liver of human KLKB1 transgenic mice (Example 7); format: in vivo; conditions: twice a week for 3 weeks
Method: (§1) Transgenic mice containing a 37,390 base pair fragment of the human KLKB1 gene sequence (chromosome 4: position 187148672-187179625, accession no: NC_000004.11) were treated with ISIS antisense oligonucleotides selected from studies described above, which were evaluated for efficacy in this model.
(§2) Groups of transgenic mice were injected subcutaneously twice a week for 3 weeks with 2.5 mg/kg/week, 5.0 mg/kg/week, 10 mg/kg/week or 20 mg/kg/week of ISIS 546232, ISIS 546251, ISIS 546254, ISIS 546343, ISIS 546828, ISIS 547455, ISIS 547457, ISIS 547927, and ISIS 548048. One group of transgenic mice was injected subcutaneously twice a week for 3 weeks with PBS. Mice were euthanized 48 hours after the last dose, and organs and plasma were harvested for further analysis.
To evaluate the effect of ISIS oligonucleotides on target reduction, RNA was extracted from liver tissue for real-time PCR analysis of human PKK. Results are presented as percent inhibition of PKK mRNA, relative to PBS control.

[11] = system: PKK protein; assay: Plasma PKK protein levels in human KLKB1 transgenic mice (Example 7); format: in vivo; conditions: plasma, twice a week for 3 weeks
Method: as §1, §2
Plasma PKK protein levels were evaluated in all groups. Results are presented as percent inhibition of PKK protein, relative to PBS control.

[12] = system: human PKK mRNA; assay: Antisense inhibition of human PKK mRNA in HepaRG cells, 5,000 nM (Example 2); format: cell-based; conditions: Table 7; HepaRG cells, electroporation with 5,000 nM antisense oligonucleotide, approx. 24 hours; PKK mRNA by RT-PCR (RTS3454), relative to untreated control cells
In short: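 HepaRG cells, 20,000 per well, were electroporated with 5,000 nM MOE gapmer (phosphorothioate, 5-methylcytosine) and incubated about 24 hours. PKK mRNA was quantified by qRT-PCR with primer probe set RTS3454, normalized to RIBOGREEN total RNA, and expressed as percent inhibition versus untreated controls.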

[13] = system: human PKK mRNA; assay: Dose-dependent antisense inhibition of human PKK in HepaRG cells, 0.19-5.00 uM (Example 5); format: cell-based; conditions: HepaRG cells
In short: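 HepaRG cells (20,000/well) were electroporated with antisense oligonucleotide at 0.19, 0.56, 1.67 and 5.00 μM and treated for about 16 hours. PKK mRNA was quantified by qRT-PCR with primer probe set RTS3454, normalised to RIBOGREEN total RNA, and IC50 was derived per oligonucleotide.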

Substance	percent inhibition of PKK mRNA, 0.11 μM [7] [%]	percent inhibition of PKK mRNA, 0.33 μM [7] [%]	percent inhibition of PKK mRNA, 1.00 μM [7] [%]	percent inhibition of PKK mRNA, 3.00 μM [7] [%]	% inhibition of PKK mRNA in the cynomolgus monkey liver relative to the PBS control [8] [%]	% inhibition of PKK mRNA in the transgenic mice liver relative to the PBS control ([10]; 2.5 mg/kg/week sc) [%]	% inhibition of PKK mRNA in the transgenic mice liver relative to the PBS control ([10]; 5 mg/kg/week sc) [%]	% inhibition of PKK mRNA in the transgenic mice liver relative to the PBS control ([10]; 10 mg/kg/week sc) [%]	% inhibition of PKK mRNA in the transgenic mice liver relative to the PBS control ([10]; 20 mg/kg/week sc) [%]	% inhibition of PKK protein levels in the transgenic mice relative to the PBS control ([11]; 2.5 mg/kg/week sc) [%]	% inhibition of PKK protein levels in the transgenic mice relative to the PBS control ([11]; 5 mg/kg/week sc) [%]	% inhibition of PKK protein levels in the transgenic mice relative to the PBS control ([11]; 20 mg/kg/week sc) [%]	% inhibition of PKK protein levels in the transgenic mice relative to the PBS control ([11]; 10 mg/kg/week sc) [%]	other results
ISIS 546251: antisense oligonucleotide targeting nucleobases 27427-27466 of SEQ ID NO: 10; sequence in a table not shown (antisense GGCAAACATTCACTCCTTTA; 5-10-5 MOE gapmer, further chemistry not given here)	–	–	–	–	–	–	–	–	–	–	–	–	–	PKK protein level reduction (%) in plasma relative to control levels ([1]; Day 17): 71%; PKK protein level reduction (%) in plasma relative to control levels ([1]; Day 31): 75%; PKK protein level reduction (%) in plasma relative to control levels ([1]; Day 45): 75%; PKK protein level reduction (%) in plasma relative to control levels ([1]; Day 59): 81%; PKK protein level reduction (%) in plasma relative to control levels ([1]; Day 73): 77%; C3 (% of baseline) [2]: 62 % of baseline; CRP [2]: 0.7 mg/dL; Plasma BUN [3]: 25.4 mg/dL; Plasma Creatinine [3]: 1.1 mg/dL; Urine protein/creatinine ratio [4]: 0.12; HCT [5]: 43%; Hemoglobin [5]: 12.9 g/dL; Platelets [5]: 419000 µL⁻¹; RBC [5]: 5.7e+06 µL⁻¹; WBC [5]: 8000 µL⁻¹; ALT [6]: 58 IU/L; AST [6]: 51 IU/L; Albumin [6]: 3.7 g/dL
547927 (eA*eT*kG*dG*dT*d[5mC]*d[5mC]*dG*dA*d[5mC]*dA*d[5mC]*dA*k[5mC]*kA*eA) [compound 547927]	56	64	92	88	54	35	52	93	71	25	21	80	–	% inhibition ([9]; experiment of Table 23): 79%
546232 (eA*eG*eG*eA*eA*d[5mC]*dT*dT*dG*dG*dT*dG*dT*dG*d[5mC]*e[5mC]*eA*e[5mC]*eT*eT) [compound 546232]	–	–	–	–	88	57	53	30	84	0	6	79	33	% inhibition [12]: 86%; percent inhibition of PKK at 0.19 μM ([13]; 0.19 μM, electroporation, approximately 16 hours, Table 39): 49%; percent inhibition of PKK at 0.56 μM ([13]; 0.56 μM, electroporation, approximately 16 hours, Table 39): 50%; percent inhibition of PKK at 1.67 μM ([13]; 1.67 μM, electroporation, approximately 16 hours, Table 39): 94%; percent inhibition of PKK at 5.00 μM ([13]; 5.00 μM, electroporation, approximately 16 hours, Table 39): 97%; IC50 ([13]; 4 point dose response, Table 39): 200 nM; percent inhibition of PKK mRNA, 0.19 μM ([13]; 0.19 μM antisense oligonucleotide): 0%; percent inhibition of PKK mRNA, 0.56 μM ([13]; 0.56 μM antisense oligonucleotide): 74%; percent inhibition of PKK mRNA, 1.67 μM ([13]; 1.67 μM antisense oligonucleotide): 95%; percent inhibition of PKK mRNA, 5.00 μM ([13]; 5.00 μM antisense oligonucleotide): 96%; IC50 ([13]; 0.19-5.00 μM): 200 nM
548048 (e[5mC]*eG*kA*dT*dA*dT*d[5mC]*dA*dT*dG*dA*dT*dT*k[5mC]*k[5mC]*e[5mC]) [compound 548048]	49	66	86	92	95	7	77	72	80	23	70	98	89	% inhibition ([9]; experiment of Table 24): 84%
